US10660877B2 (BRISTOL-MYERS SQUIBB COMPANY, priority 2016, dated 2020)
pIC50: −log10 of the molar value. Read-outs that look alike come from different tables or passages of the source.

What was measured:
[1] = biological target: human TLR7 (Homo sapiens (Human), UniProt Q9NYK1); test: TLR7 inhibition reporter assay (HEK-Blue cells, SEAP reporter, gardiquimod stimulation); type: cell-based
[2] = biological target: human TLR9 (Homo sapiens (Human), UniProt Q9NR96); test: TLR9 inhibition reporter assay (HEK-Blue cells, SEAP reporter, ODN2006 stimulation);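 note: compounds tested over 0.05 nM to 50 µM, 22 h incubation, inhibition taken as SEAP signal drop from agonist plus DMSO wells toward a known inhibitor control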
Chain of human TLR9 (Q9NR96 26-1032): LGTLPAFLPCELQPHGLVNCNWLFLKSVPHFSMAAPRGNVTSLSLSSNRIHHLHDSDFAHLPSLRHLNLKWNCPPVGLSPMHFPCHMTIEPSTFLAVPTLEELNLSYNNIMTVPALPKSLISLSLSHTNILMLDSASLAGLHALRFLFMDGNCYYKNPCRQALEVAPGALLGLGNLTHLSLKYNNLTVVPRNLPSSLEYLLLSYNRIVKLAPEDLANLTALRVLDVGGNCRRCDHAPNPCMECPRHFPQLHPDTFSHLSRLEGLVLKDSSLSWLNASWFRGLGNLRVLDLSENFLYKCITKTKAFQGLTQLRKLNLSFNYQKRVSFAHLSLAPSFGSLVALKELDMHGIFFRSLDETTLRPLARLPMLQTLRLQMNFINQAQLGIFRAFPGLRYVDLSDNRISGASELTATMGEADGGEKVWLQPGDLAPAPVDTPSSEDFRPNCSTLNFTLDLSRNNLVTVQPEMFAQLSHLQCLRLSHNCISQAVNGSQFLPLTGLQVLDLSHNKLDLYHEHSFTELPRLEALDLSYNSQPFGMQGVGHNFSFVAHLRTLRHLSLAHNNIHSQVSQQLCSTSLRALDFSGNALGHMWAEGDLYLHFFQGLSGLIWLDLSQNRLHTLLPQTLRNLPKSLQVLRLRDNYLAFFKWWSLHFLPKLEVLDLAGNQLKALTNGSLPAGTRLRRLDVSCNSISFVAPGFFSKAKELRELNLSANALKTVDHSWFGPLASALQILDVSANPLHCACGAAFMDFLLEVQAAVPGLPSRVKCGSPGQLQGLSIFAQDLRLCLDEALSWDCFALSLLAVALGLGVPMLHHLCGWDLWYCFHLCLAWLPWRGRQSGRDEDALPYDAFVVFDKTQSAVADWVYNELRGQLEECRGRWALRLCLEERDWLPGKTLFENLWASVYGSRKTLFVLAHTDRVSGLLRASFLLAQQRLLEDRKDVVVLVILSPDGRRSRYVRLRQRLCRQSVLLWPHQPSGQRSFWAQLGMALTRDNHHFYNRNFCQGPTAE

[3] = biological target: human TLR8 (Homo sapiens (Human), UniProt Q9NR97); test: TLR8 inhibition reporter assay (HEK-Blue cells, SEAP reporter, R848 stimulation);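 note: compounds tested from 0.05 nM to 50 µM, 22 h at 37 °C, SEAP measured with HEK-Blue Detection, inhibition relative to agonist plus DMSO versus a known inhibitor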
Chain of human TLR8 (Q9NR97 27-1041): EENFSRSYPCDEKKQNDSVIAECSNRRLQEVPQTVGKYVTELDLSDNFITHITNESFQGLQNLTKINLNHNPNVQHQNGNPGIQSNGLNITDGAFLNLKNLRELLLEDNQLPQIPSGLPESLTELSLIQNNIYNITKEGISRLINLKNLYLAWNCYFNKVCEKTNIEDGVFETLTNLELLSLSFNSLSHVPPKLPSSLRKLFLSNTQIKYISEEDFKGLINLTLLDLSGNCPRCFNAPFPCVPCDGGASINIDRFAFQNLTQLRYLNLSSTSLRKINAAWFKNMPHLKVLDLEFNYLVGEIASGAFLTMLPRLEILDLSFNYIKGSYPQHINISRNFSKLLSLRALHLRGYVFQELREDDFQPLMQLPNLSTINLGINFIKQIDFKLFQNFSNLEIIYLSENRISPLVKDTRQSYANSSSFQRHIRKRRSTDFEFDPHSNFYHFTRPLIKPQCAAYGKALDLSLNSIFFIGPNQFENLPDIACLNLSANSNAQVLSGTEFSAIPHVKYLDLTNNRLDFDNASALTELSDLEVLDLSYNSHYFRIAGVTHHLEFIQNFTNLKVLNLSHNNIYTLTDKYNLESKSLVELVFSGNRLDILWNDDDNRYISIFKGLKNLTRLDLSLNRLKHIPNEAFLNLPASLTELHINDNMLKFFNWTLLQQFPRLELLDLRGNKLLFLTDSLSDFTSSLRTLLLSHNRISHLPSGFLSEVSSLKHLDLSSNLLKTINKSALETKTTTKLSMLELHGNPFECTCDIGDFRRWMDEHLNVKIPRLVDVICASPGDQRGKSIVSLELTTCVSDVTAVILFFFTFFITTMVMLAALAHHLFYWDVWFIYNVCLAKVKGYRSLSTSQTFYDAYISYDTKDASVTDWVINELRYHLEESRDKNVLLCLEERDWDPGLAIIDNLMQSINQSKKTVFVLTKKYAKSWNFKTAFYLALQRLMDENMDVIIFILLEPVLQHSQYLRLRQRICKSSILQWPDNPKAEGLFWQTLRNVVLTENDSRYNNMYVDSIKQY

[4] = HEK-Blue cells overexpressing human TLR7, gardiquimod 7.5 μM
[5] = read-out: TLR9 IC50, HEK-Blue cells overexpressing human TLR9, ODN2006 5 nM
[6] = read-out: TLR8 IC50, HEK-Blue cells overexpressing human TLR8, R848 15.9 μM
[7] = HEK-Blue cells, gardiquimod 7.5 μM
[8] = read-out: TLR9 IC50, HEK-Blue cells, ODN2006 5 nM
[9] = read-out: TLR8 IC50, HEK-Blue cells, R848 15.9 μM

Chain of human TLR7 (Q9NYK1 27-1049): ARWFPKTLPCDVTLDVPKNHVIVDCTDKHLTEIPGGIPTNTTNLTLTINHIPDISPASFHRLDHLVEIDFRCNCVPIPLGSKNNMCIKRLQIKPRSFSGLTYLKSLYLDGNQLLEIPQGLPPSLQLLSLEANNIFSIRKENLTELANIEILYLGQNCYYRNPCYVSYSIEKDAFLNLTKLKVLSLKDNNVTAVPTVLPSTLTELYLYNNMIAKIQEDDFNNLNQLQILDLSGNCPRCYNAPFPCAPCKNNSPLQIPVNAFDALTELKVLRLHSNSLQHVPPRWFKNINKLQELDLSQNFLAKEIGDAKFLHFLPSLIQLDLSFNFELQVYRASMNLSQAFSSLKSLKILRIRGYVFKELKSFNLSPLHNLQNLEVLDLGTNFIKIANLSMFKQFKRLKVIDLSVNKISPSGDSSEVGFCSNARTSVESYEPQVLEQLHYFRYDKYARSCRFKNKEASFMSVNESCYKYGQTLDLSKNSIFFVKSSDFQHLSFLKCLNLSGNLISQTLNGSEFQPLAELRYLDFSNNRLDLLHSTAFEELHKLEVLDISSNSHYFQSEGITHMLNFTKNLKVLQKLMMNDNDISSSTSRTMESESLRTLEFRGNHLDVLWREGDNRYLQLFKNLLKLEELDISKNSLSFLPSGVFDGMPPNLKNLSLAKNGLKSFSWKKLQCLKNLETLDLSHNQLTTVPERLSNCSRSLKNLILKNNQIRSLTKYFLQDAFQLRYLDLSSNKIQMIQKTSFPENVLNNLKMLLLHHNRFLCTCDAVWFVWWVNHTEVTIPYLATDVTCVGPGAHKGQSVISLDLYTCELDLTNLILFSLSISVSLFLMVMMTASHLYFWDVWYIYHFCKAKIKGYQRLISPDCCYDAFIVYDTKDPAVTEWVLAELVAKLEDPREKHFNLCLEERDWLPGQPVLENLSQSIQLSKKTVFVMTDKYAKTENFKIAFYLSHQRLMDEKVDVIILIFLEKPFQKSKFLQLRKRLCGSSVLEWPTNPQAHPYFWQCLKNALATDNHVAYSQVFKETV

Structure (SMILES) | pIC50 [1, 4] | pIC50 [2, 5] | pIC50 [3, 6] | pIC50 [1, 7] | pIC50 [2, 8] | pIC50 [3, 9] | pIC50 ([2]; TLR9 IC50, HEK-Blue cells overexpressing human TLR9, ODN2006 5 nM) | pIC50 ([3]; TLR8 IC50, HEK-Blue cells overexpressing human TLR8, R848 15.9 μM)
CCCNCC(=O)N1CCC(c2ccc3[nH]c(-c4cc(C)nc(C)c4)c(C(C)C)c3c2)CC1 [Example 348, 1-(4-(2-(2,6-dimethylpyridin-4-yl)-3-isopropyl-1H-indol-5-yl)piperidin-1-yl)-2-(propylamino)ethan-1-one] | 8.44 | 6.37 | 7.95 |  |  |  |  | 
Cc1cc(-c2[nH]c3ccc(C4CCNCC4)cc3c2C(C)C)c(N)c(C)n1 [Example 29, 4-(3-isopropyl-5-(piperidin-4-yl)-1H-indol-2-yl)-2,6-dimethylpyridin-3-amine] | 8.68 | 6.58 | 7.73 |  |  |  |  | 
Cc1cc(-c2[nH]c3ccc(C4CCN(C(=O)CNC5CCCOC5)CC4)cc3c2C(C)C)cc(C)n1 (stereo not drawn) [Example 385, 1-(4-(2-(2,6-dimethylpyridin-4-yl)-3-isopropyl-1H-indol-5-yl)piperidin-1-yl)-2-((tetrahydro-2H-pyran-3-yl)amino)ethan-1-one] | 8.49 | 6.27 | 7.66 |  |  |  |  | 
Cc1cc(-c2[nH]c3ccc(C4CCN(C)CC4)cc3c2C(C)C)c(C)cn1 [Example 636, 2-(2,5-dimethylpyridin-4-yl)-3-isopropyl-5-(1-methylpiperidin-4-yl)-1H-indole] | 8.01 | 5.86 | 9.00 |  |  |  |  | 
CO[C@@H]1C[C@H](CO)N(CC(=O)N2CCC(c3ccc4[nH]c(-c5cc(C)nc(C)c5)c(C(C)C)c4c3)CC2)C1 [Example 395, 1-(4-(2-(2,6-dimethylpyridin-4-yl)-3-isopropyl-1H-indol-5-yl)piperidin-1-yl)-2-((2R,4R)-2-(hydroxymethyl)-4-methoxypyrrolidin-1-yl)ethan-1-one] | 8.01 | 6.00 | 7.39 |  |  |  |  | 
Cc1cc(-c2[nH]c3ccc(C4CCN(CC(=O)N5CCNC(=O)C5)CC4)cc3c2C(C)C)cc(C)n1 [Example 272, 4-(2-(4-(2-(2,6-dimethylpyridin-4-yl)-3-isopropyl-1H-indol-5-yl)piperidin-1-yl)acetyl)piperazin-2-one] | 8.92 | 7.34 | 8.51 |  |  |  |  | 
Cc1cc(-c2[nH]c3ccc(C4CCN(C(=O)C(=O)O)CC4)cc3c2C(C)C)cc(C)n1 [Example 859, 2-(4-(2-(2,6-dimethylpyridin-4-yl)-3-isopropyl-1H-indol-5-yl)piperidin-1-yl)-2-oxoacetic acid] |  |  |  | 7.36 | < 4.30 | 6.27 |  | 
Cc1cc(-c2[nH]c3ccc(C4CCN(Cc5cn(C)nn5)CC4)cc3c2C(C)C)cc(C)n1 [Example 442, 2-(2,6-dimethylpyridin-4-yl)-3-isopropyl-5-(1-((1-methyl-1H-1,2,3-triazol-4-yl)methyl)piperidin-4-yl)-1H-indole] | 8.28 | 5.92 | 8.17 |  |  |  |  | 
CCc1c(-c2ccnc(C)c2C)[nH]c2ccc(C3CCNCC3)cc12 [Example 70, 2-(2,3-dimethylpyridin-4-yl)-3-ethyl-5-(piperidin-4-yl)-1H-indole] | 6.92 | 5.95 | 7.33 |  |  |  |  | 
Cc1cc(-c2[nH]c3ccc(C4CCN(CC5CC5)CC4)cc3c2C(C)C)cc(C)n1 [Example 474, 5-(1-(cyclopropylmethyl)piperidin-4-yl)-2-(2,6-dimethylpyridin-4-yl)-3-isopropyl-1H-indole] | 8.60 | 6.30 | 8.49 |  |  |  |  | 
Cc1cc(-c2[nH]c3ccc(C4CCN(CC(=O)N[C@H]5CC[C@H](O)CC5)CC4)cc3c2C(C)C)cc(C)n1 [Example 211, 2-(4-(2-(2,6-dimethylpyridin-4-yl)-3-isopropyl-1H-indol-5-yl)piperidin-1-yl)-N-((1r,4r)-4-hydroxycyclohexyl)acetamide] | 8.96 | 6.61 | 8.38 |  |  |  |  | 
Cc1cc(-c2[nH]c3ccc(C4CCN(C(=O)C5CC(=O)N(C(C)(C)C)C5)CC4)cc3c2C(C)C)ccn1 (stereo not drawn) [Example 613, 1-(tert-butyl)-4-(4-(3-isopropyl-2-(2-methylpyridin-4-yl)-1H-indol-5-yl)piperidine-1-carbonyl)pyrrolidin-2-one] | 7.26 | 5.12 | 6.69 |  |  |  |  | 
Cc1cc(-c2[nH]c3ccc(C4CCN(C(=O)C5CCN(Cc6ccccc6)C5)CC4)cc3c2C(C)C)ccn1 (stereo not drawn) [Example 575, (1-benzylpyrrolidin-3-yl)(4-(3-isopropyl-2-(2-methylpyridin-4-yl)-1H-indol-5-yl)piperidin-1-yl)methanone] | 7.47 | 5.97 | 7.73 |  |  |  |  | 
Cc1cc(-c2[nH]c3ccc(C4CCN(C(=O)C5CCN(C)CC5)CC4)cc3c2C(C)C)cc(C)n1 [Example 110, (4-(2-(2,6-dimethylpyridin-4-yl)-3-isopropyl-1H-indol-5-yl)piperidin-1-yl)(1-methylpiperidin-4-yl)methanone] | 8.41 |  |  |  |  |  | 6.41 | 8.09
Cc1cc(-c2[nH]c3ccc(C4CCN(C(=O)c5cccn(C6CC6)c5=O)CC4)cc3c2C(C)C)cc(C)n1 [Example 123, 1-cyclopropyl-3-(4-(2-(2,6-dimethylpyridin-4-yl)-3-isopropyl-1H-indol-5-yl)piperidine-1-carbonyl)pyridin-2(1H)-one] | 7.69 | 4.44 | 6.94 |  |  |  |  | 
Cc1cc(-c2[nH]c3ccc(C4CCN(C(=O)OCC(C)C)CC4)cc3c2C(C)C)ccn1 [Example 558, isobutyl 4-(3-isopropyl-2-(2-methylpyridin-4-yl)-1H-indol-5-yl)piperidine-1-carboxylate] | 5.47 | 4.82 | 5.73 |  |  |  |  | 
Cc1cc(-c2[nH]c3ccc(C4CCN(CC(=O)N5CCOC[C@H]5CO)CC4)cc3c2C(C)C)cc(C)n1 [Example 304, (R)-2-(4-(2-(2,6-dimethylpyridin-4-yl)-3-isopropyl-1H-indol-5-yl)piperidin-1-yl)-1-(3-(hydroxymethyl)morpholino)ethan-1-one] | 7.99 | 6.36 | 7.37 |  |  |  |  | 
Cc1cc(-c2[nH]c3ccc(C4CCN(C5CCCNC5O)CC4)cc3c2C(C)C)ccn1 (stereo not drawn) [Example 702, 4-(3-isopropyl-2-(2-methylpyridin-4-yl)-1H-indol-5-yl)-[1,3′-bipiperidin]-2′-ol] | 7.84 | 6.36 | 8.54 |  |  |  |  | 
Cc1cc(-c2[nH]c3ccc(C4CCN(C(=O)CNC56CC7CC(CC(C7)C5)C6)CC4)cc3c2C(C)C)cc(C)n1 [Example 342, 2-(adamantan-1-ylamino)-1-(4-(2-(2,6-dimethylpyridin-4-yl)-3-isopropyl-1H-indol-5-yl)piperidin-1-yl)ethan-1-one] | 7.58 | 6.18 | 7.17 |  |  |  |  | 
COC[C@@H]1CCCN1CC(=O)N1CCC(c2ccc3[nH]c(-c4cc(C)nc(C)c4)c(C(C)C)c3c2)CC1 [Example 370, (S)-1-(4-(2-(2,6-dimethylpyridin-4-yl)-3-isopropyl-1H-indol-5-yl)piperidin-1-yl)-2-(2-(methoxymethyl)pyrrolidin-1-yl)ethan-1-one] | 8.33 | 6.05 | 7.54 |  |  |  |  | 
Cc1cc(-c2[nH]c3ccc(C4CCN(CC5(C)COC5)CC4)cc3c2C(C)C)c(C)cn1 [Example 872, 2-(2,5-dimethylpyridin-4-yl)-3-isopropyl-5-(1-((3-methyloxetan-3-yl)methyl)piperidin-4-yl)-1H-indole] |  |  |  | 7.69 | 5.64 | 8.55 |  | 
Cc1cc(-c2[nH]c3ccc(C4CCNCC4)cc3c2C(C)C(F)(F)F)cc(C)n1 (stereo not drawn) [Example 92, 2-(2,6-dimethylpyridin-4-yl)-5-(piperidin-4-yl)-3-(1,1,1-trifluoropropan-2-yl)-1H-indole] | 9.22 | 6.35 | 8.28 |  |  |  |  | 
Cc1cc(-c2[nH]c3ccc(C4CCN(CC(=O)N(CCO)Cc5ccccc5)CC4)cc3c2C(C)C)cc(C)n1 [Example 293, N-benzyl-2-(4-(2-(2,6-dimethylpyridin-4-yl)-3-isopropyl-1H-indol-5-yl)piperidin-1-yl)-N-(2-hydroxyethyl)acetamide] | 7.64 | 6.15 | 7.14 |  |  |  |  | 
CCN(C)C(=O)CN1CCC(c2ccc3[nH]c(-c4cc(C)nc(C)c4)c(C(C)C)c3c2)CC1 [Example 246, 2-(4-(2-(2,6-dimethylpyridin-4-yl)-3-isopropyl-1H-indol-5-yl)piperidin-1-yl)-N-ethyl-N-methylacetamide] | 8.59 | 6.18 | 8.28 |  |  |  |  | 
Cc1cc(-c2[nH]c3ccc(C4CCNCC4)cc3c2CC(F)F)ccn1 [Example 84, 3-(2,2-difluoroethyl)-2-(2-methylpyridin-4-yl)-5-(piperidin-4-yl)-1H-indole] | 7.12 | 6.33 | 7.40 |  |  |  |  | 
Cc1cc(-c2[nH]c3ccc(C4CCN(CCOc5ccccc5)CC4)cc3c2C(C)C)ccn1 [Example 663, 3-isopropyl-2-(2-methylpyridin-4-yl)-5-(1-(2-phenoxyethyl)piperidin-4-yl)-1H-indole] | 6.95 | 5.96 | 7.51 |  |  |  |  | 
Cc1cc(-c2[nH]c3ccc(C4CCN(C(=O)C5CCOC5)CC4)cc3c2C(C)C)ccn1 (stereo not drawn) [Example 599, (4-(3-isopropyl-2-(2-methylpyridin-4-yl)-1H-indol-5-yl)piperidin-1-yl)(tetrahydrofuran-3-yl)methanone] | 7.73 | 4.36 | 6.75 |  |  |  |  | 
Cc1cc(-c2[nH]c3ccc(C4CCN(Cc5cnc(C)[nH]5)CC4)cc3c2C(C)C)ccn1 [Example 821, 3-isopropyl-5-(1-((2-methyl-1H-imidazol-5-yl)methyl)piperidin-4-yl)-2-(2-methylpyridin-4-yl)-1H-indole] |  |  |  | 7.44 | 6.72 | 8.32 |  | 
